Data reported in patent US8158628B2, “Sulfonylated 1,2,3,4-tetrahydropyrrolo[1,2-a]pyrazine compounds and their use as pharmaceuticals” (Gruenenthal GmbH, priority 2009, dated 2012).

These molecules were tested against T1, B1R of the rat (Rattus norvegicus, UniProt P97583) (assay: FLIPR Ca2+ functional assay, B1R antagonism, rat B1R in CHO K1 cells). Conditions: test substance 10 μM; rB1R CHO K1 cells; agonist Des-Arg9 bradykinin at EC80; % of maximum achievable inhibition.
T1 construct: expressed in transfected cells; host or cells: CHO K1 cells (Chinese hamster ovary), stably transfected
T1 sequence (P97583 1-337): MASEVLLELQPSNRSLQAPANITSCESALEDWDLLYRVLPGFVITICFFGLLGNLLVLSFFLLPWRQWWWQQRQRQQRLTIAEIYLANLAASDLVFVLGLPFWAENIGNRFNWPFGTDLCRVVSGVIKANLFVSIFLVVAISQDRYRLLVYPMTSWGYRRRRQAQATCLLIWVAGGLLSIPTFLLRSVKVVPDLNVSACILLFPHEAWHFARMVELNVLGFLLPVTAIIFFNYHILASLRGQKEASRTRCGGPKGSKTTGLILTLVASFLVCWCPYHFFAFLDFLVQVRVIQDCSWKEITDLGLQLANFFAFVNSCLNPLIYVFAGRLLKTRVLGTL
Assay type: cell-based
Method: The agonistic or antagonistic action of substances on the bradykinin 1 receptor (B1R) of the human and rat species can be quantified with ectopically expressing cell lines (CHO K1 cells) and with the aid of a Ca^2+-sensitive dye (Fluo-4) using a fluorescent imaging plate reader (FLIPR). The value in % activation is based on the Ca^2+ signal after addition of Lys-Des-Arg^9 bradykinin (0.5 nM) or Des-Arg^9 bradykinin (100 nM). Antagonists lead to a suppression of the Ca^2+ influx following administration of the agonist. The % inhibition in comparison with the maximum achievable inhibition is indicated.
1. Functional Investigation on the Bradykinin 1 Receptor (B1R) The agonistic or antagonistic action of substances can be determined on the bradykinin 1 receptor (B1R) of the human and rat species with the following assay. According to this assay, the Ca^2+ inflow through the channel is quantified with the aid of a Ca^2+-sensitive dye (Fluo-4 type, Molecular Probes Europe BV, Leiden, Netherlands) in a fluorescent imaging plate reader (FLIPR, Molecular Devices, Sunnyvale, USA). 2. Method: Chinese hamster ovary cells (CHO K1 cells) which are stably transfected with the human B1R gene (hB1R cells) or the B1R gene of the rat (rB1R cells) are used. For functional investigations these cells are plated-out onto black 96-well plates with a clear base (BD Biosciences, Heidelberg, Germany or Greiner, Frickenhausen, Germany) in a density of 20,000-35,000 cells/well. Overnight the cells are incubated at 37° C. and 5% CO2 in culture medium (hB1R cells: Ham's Nutrient Mixture F12, Gibco Invitrogen GmbH, Karlsruhe, Germany or DMEM, Sigma-Aldrich, Taufkirchen, Germany; rB1R cells: D-MEM/F12, Gibco Invitrogen, Karlsruhe, Germany) with 10 vol. % FBS (foetal bovine serum, Gibco Invitrogen GmbH, Karlsruhe, Germany or PAN Biotech GmbH, Aidenbach, Germany).
On the following day the cells are loaded with 2.13 μM Fluo-4 (Molecular Probes Europe BV, Leiden, Netherlands) in HBSS buffer (Hank's buffered saline solution, Gibco Invitrogen GmbH, Karlsruhe, Germany) with 2.5 mM probenecid (Sigma-Aldrich, Taufkirchen, Germany) and 10 mM HEPES (Sigma-Aldrich, Taufkirchen, Germany) for 60 min at 37° C. The plates are subsequently washed twice with HBSS buffer, and HBSS buffer which additionally contains 0.1% BSA (bovine serum albumin; Sigma-Aldrich, Taufkirchen, Germany), 5.6 mM glucose and 0.05% gelatine (Merck KGaA, Darmstadt, Germany) is added. After a further incubation of 20 minutes at RT, the plates are inserted into the FLIPR for Ca^2+ measurement. Alternatively they are washed with buffer A (15 mM HEPES, 80 mM NaCl, 5 mM KCl, 1.2 mM CaCl2, 0.7 mM MgSO4, 2 g/l glucose, 2.5 mM probenecid) and loaded with buffer A with added 2.5 μM Fluo-4 and 0.025% Pluronic F127 (Sigma-Aldrich, Taufkirchen, Germany). The cells are then washed twice with buffer A and incubated for 30 minutes with buffer A, which additionally contains 0.05% BSA and 0.05% gelatine, at RT and then used for Ca^2+ measurement in the FLIPR. The Ca^2+-dependent fluorescence is measured here before and after addition of substances (λex=488 nm, λem=540 nm). The quantification is performed by measuring the highest fluorescence intensity (FC, fluorescence counts) over time.
The FLIPR protocol comprises two additions of substance. Test substances (10 μM) are first pipetted onto the cells and the Ca^2+ inflow is compared with the control (hB1R: Lys-Des-Arg^9 bradykinin >=50 nM; rB1R: Des-Arg^9 bradykinin 10 μM). The value in % activation based on the Ca^2+ signal after addition of Lys-Des-Arg^9 bradykinin (>=50 nM) or Des-Arg^9 bradykinin (10 μM) is obtained therefrom. After incubation for 10-20 minutes, Lys-Des-Arg^9 bradykinin (hB1R) or Des-Arg^9 bradykinin (rB1R) is applied in the EC80 concentration and the inflow of Ca^2+ is likewise determined.
Antagonists lead to a suppression of the Ca^2+ inflow. The % inhibition in comparison with the maximum achievable inhibition is calculated. […]
Work on `Cc1cccc(Cl)c1S(=O)(=O)N1CCn2cccc2C1CC(=O)N1CCC[C@H]1CN1CCCC1` (stereo partly drawn) [Example 260, 2-[2-[(2-Chloro-6-methyl-phenyl)sulfonyl]-1,2,3,4-tetrahydro-pyrrolo[1,2-a]pyrazin-1-yl]-1-[(2S)-2-(pyrrolidin-1-yl-methyl)-pyrrolidin-1-yl]-ethanone] yielded an inhibition at 10 µM of -11.4%. In the case of `Cc1cccc(Cl)c1S(=O)(=O)N1CCn2cccc2C1CC(=O)N1CCC(N2CCN(C)CC2)CC1` (stereo not shown) [Example 161, 2-[2-[(2-Chloro-6-methyl-phenyl)sulfonyl]-1,2,3,4-tetrahydro-pyrrolo[1,2-a]pyrazin-1-yl]-1-[4-(4-methyl-piperazin-1-yl)-piperidin-1-yl]-ethanone], the inhibition at 10 µM is reported as 10.5%. `Cc1cccc(Cl)c1S(=O)(=O)N1CCn2cccc2C1CC(=O)NC(CN1CCN(C)CC1)c1ccccc1` (stereo not shown) [Example 156, 2-[2-[(2-Chloro-6-methyl-phenyl)sulfonyl]-1,2,3,4-tetrahydro-pyrrolo[1,2-a]pyrazin-1-yl]-N-[2-(4-methyl-piperazin-1-yl)-1-phenyl-ethyl]-acetamide] gave an inhibition at 10 µM of 95.1%. With `Cc1cc(S(=O)(=O)N2CCn3cccc3C2CC(=O)N(C)C(CN2CCN(C)CC2)c2ccccc2)c(C)cc1Cl` (stereo not shown) [Example 230, 2-[2-[(4-Chloro-2,5-dimethyl-phenyl)sulfonyl]-1,2,3,4-tetrahydro-pyrrolo[1,2-a]pyrazin-1-yl]-N-methyl-N-[2-(4-methyl-piperazin-1-yl)-1-phenyl-ethyl]-acetamide] the inhibition at 10 µM was 5.28%. `Cc1cccc(Cl)c1S(=O)(=O)N1CCn2cccc2C1CC(=O)N1CCN(CCO)CC1` (stereo not shown) [Example 263, 2-[2-[(2-Chloro-6-methyl-phenyl)sulfonyl]-1,2,3,4-tetrahydro-pyrrolo[1,2-a]pyrazin-1-yl]-1-[4-(2-hydroxy-ethyl)-piperazin-1-yl]-ethanone] was tested, and the inhibition at 10 µM was 2.37%. `O=C(CC1c2cccn2CCN1S(=O)(=O)c1ccc(C(F)(F)F)cc1Cl)N1CCCCC1` (stereo not shown) [Example 19, 2-(2-(2-Chloro-4-(trifluoromethyl)phenylsulfonyl)-1,2,3,4-tetrahydropyrrolo[1,2-a]pyrazin-1-yl)-1-(piperidin-1-yl)ethanone] showed an inhibition at 10 µM of -7.98%. `COc1cc(C)c(S(=O)(=O)N2CCn3cccc3C2CC(=O)N2CCC(CCN3CCCCC3)CC2)c(C)c1` (stereo not shown) [Example 146, 2-[2-[(4-Methoxy-2,6-dimethyl-phenyl)sulfonyl]-1,2,3,4-tetrahydro-pyrrolo[1,2-a]pyrazin-1-yl]-1-[4-(2-piperidin-1-yl-ethyl)-piperidin-1-yl]-ethanone] was tested, and the inhibition at 10 µM was 73.5%. Molecule `COc1cc(C)c(S(=O)(=O)N2CCn3cccc3C2CC(=O)N2CCN(c3ccccn3)CC2)c(C)c1` (stereo not shown) [Example 149, 2-[2-[(4-Methoxy-2,6-dimethyl-phenyl)sulfonyl]-1,2,3,4-tetrahydro-pyrrolo[1,2-a]pyrazin-1-yl]-1-(4-pyridin-2-yl-piperazin-1-yl)-ethanone] has an inhibition at 10 µM of 68.9%. Work on `Cc1cccc(Cl)c1S(=O)(=O)N1CCn2cccc2C1CC(=O)N1CCC(CCN2CCCCC2)CC1` (stereo not shown) [Example 165, 2-[2-[(2-Chloro-6-methyl-phenyl)sulfonyl]-1,2,3,4-tetrahydro-pyrrolo[1,2-a]pyrazin-1-yl]-1-[4-(2-piperidin-1-yl-ethyl)-piperidin-1-yl]-ethanone] yielded an inhibition at 10 µM of 55.8%. Molecule `COc1cc(C)c(S(=O)(=O)N2CCn3cccc3C2CC(=O)N2CCC(O)(c3cccnc3)CC2)c(C)c1` (stereo not shown) [Example 141, 1-(4-Hydroxy-4-pyridin-3-yl-piperidin-1-yl)-2-[2-[(4-methoxy-2,6-dimethyl-phenyl)sulfonyl]-1,2,3,4-tetrahydro-pyrrolo[1,2-a]pyrazin-1-yl]ethanone] has an inhibition at 10 µM of 37.8%. `COc1cc(C)c(S(=O)(=O)N2CCn3cccc3C2CC(=O)N2CCN(Cc3ccc4c(c3)OCO4)CC2)c(C)c1` (stereo not shown) [Example 246, 1-[4-(1,3-Benzodioxol-5-yl-methyl)-piperazin-1-yl]-2-[2-[(4-methoxy-2,6-dimethyl-phenyl)sulfonyl]-1,2,3,4-tetrahydro-pyrrolo[1,2-a]pyrazin-1-yl]-ethanone] showed an inhibition at 10 µM of 6.85%. `Cc1cccc(Cl)c1S(=O)(=O)N1CCn2cccc2C1CC(=O)NCC1CCN(Cc2ccccc2)C1` (stereo not shown) [Example 166, N-[(1-Benzyl-pyrrolidin-3-yl)-methyl]-2-[2-[(2-chloro-6-methyl-phenyl)sulfonyl]-1,2,3,4-tetrahydro-pyrrolo[1,2-a]pyrazin-1-yl]-acetamide] showed an inhibition at 10 µM of 99.1%. Molecule `Cc1cccc(Cl)c1S(=O)(=O)N1CCn2cccc2C1CC(=O)N1CCCN(c2ncccc2C#N)CC1` (stereo not shown) [Example 164, 2-[4-[2-[2-[(2-Chloro-6-methyl-phenyl)sulfonyl]-1,2,3,4-tetrahydro-pyrrolo[1,2-a]pyrazin-1-yl]-acetyl]-[1,4]diazepan-1-yl]-pyridine-3-carbonitrile] has an inhibition at 10 µM of 44.1%. With `COc1cc(C)c(S(=O)(=O)N2CCn3cccc3C2CC(=O)NCC2CCN(Cc3ccccc3)C2)c(C)c1` (stereo not shown) [Example 151, N-[(1-Benzyl-pyrrolidin-3-yl)-methyl]-2-[2-[(4-methoxy-2,6-dimethyl-phenyl)sulfonyl]-1,2,3,4-tetrahydro-pyrrolo[1,2-a]pyrazin-1-yl]-acetamide] the inhibition at 10 µM was 104%. Work on `CCN1CCN(C(=O)CC2c3cccn3CCN2S(=O)(=O)c2ccccc2)CC1` (stereo not shown) [Example 173, 2-[2-(Benzenesulfonyl)-1,2,3,4-tetrahydro-pyrrolo[1,2-a]pyrazin-1-yl]-1-(4-ethyl-piperazin-1-yl)-ethanone] yielded an inhibition at 10 µM of 9.74%. For `O=C(CC1c2cccn2CCN1S(=O)(=O)c1ccccc1)N1CCC(N2CCCC2)CC1` (stereo not shown) [Example 175, 2-[2-(Benzenesulfonyl)-1,2,3,4-tetrahydro-pyrrolo[1,2-a]pyrazin-1-yl]-1-(4-pyrrolidin-1-yl-piperidin-1-yl)-ethanone], the inhibition at 10 µM was 9.54%. Molecule `CCN1CCN(C(=O)CC2c3cccn3CCN2S(=O)(=O)c2cccc(C(F)(F)F)c2)CC1` (stereo not shown) [Example 187, 1-(4-Ethyl-piperazin-1-yl)-2-[2-[[3-(trifluoromethyl)phenyl]sulfonyl]-1,2,3,4-tetrahydro-pyrrolo[1,2-a]pyrazin-1-yl]-ethanone] has an inhibition at 10 µM of 18.3%. `O=C(CC1c2cccn2CCN1S(=O)(=O)c1ccccc1)N1CCN(c2ccccc2)CC1` (stereo not shown) [Example 174, 2-[2-(Benzenesulfonyl)-1,2,3,4-tetrahydro-pyrrolo[1,2-a]pyrazin-1-yl]-1-(4-phenyl-piperazin-1-yl)-ethanone] gave an inhibition at 10 µM of 28%. Work on `Cc1cccc(Cl)c1S(=O)(=O)N1CCn2cccc2C1COCC(=O)N1CCC2(CC1)CCN(c1ccncc1)C2` (stereo not shown) [Example 14, 2-((2-(2-Chloro-6-methylphenylsulfonyl)-1,2,3,4-tetrahydropyrrolo[1,2-a]pyrazin-1-yl)methoxy)-1-(2-(pyridin-4-yl)-2,8-diazaspiro[4.5]decan-8-yl)ethanone] yielded an inhibition at 10 µM of 109%.
